In a melting point compilation (Tetko et al.; mined from patent text by program, amines drawn as free bases though some values may be those of a salt):

Work on `CCCCCCCCCCCCCCCc1cc2c(C(=O)OCC)cccc2[nH]1` yielded a melting point of 42 to 45 °C.
`COc1cc(OC)c(NC(=O)NC2(c3ccccc3)CCCC2)c(OC)c1` showed a melting point of 193 to 195 °C.
For `O=C(N[C@H]1C[C@H](C(=O)O)Nc2cc(Cl)cc(Cl)c21)c1ccccc1Cl` (relative stereo), the melting point was 141 to 143 °C.
Compound `CCN(CCCOC)c1nc(C)nc2c1nnn2-c1ccc(C(C)C)cc1Br` has a melting point of 109 to 110 °C.
With `CCOc1cc(OCCCc2cn(-c3ccc(C(F)(F)F)cn3)nc2OC(C)C)ccc1CCC(=O)O` the melting point was 128 to 129 °C.
For `CCC(=O)c1ccc(OCCOC)cc1`, the melting point was 31 to 35 °C.
For `CCOC(=O)c1cnn2c(-c3ccc(OC)c(OC)c3)ccnc12`, the melting point was 148 to 149 °C.
`COc1cc2nc(N3CCN(c4nccs4)CC3)nc(N)c2cc1OC` gave a melting point of 220 to 221 °C.
`Cc1nnc(-c2ccc3occ(-c4ccc(S(C)=O)c(Cl)c4)c3c2)o1` (stereo unspecified) gave a melting point of 196 to 197 °C.
`CCOC(=O)c1cccc(-n2cccc2)c1` gave a melting point of 62 to 64 °C.
Work on `CC(C)COc1ccc(-c2nc3cccc(O)c3s2)cc1C#N` yielded a melting point of 200 to 202 °C.
For `Nc1cnc2cc3c(cc2c1-c1ccccc1Cl)CCC3`, the melting point was 179 to 180 °C.
Compound `Cc1ccc(-c2ccc(O)cc2)c(-c2ccc(OCCN3CCOCC3)cc2)n1` has a melting point of 75 to 80 °C.
Work on `Cc1cccc2c1nc(-c1cccc3ccccc13)n2Cc1c(F)cccc1F` yielded a melting point of 121 to 123 °C.
Compound `Cc1nn(-c2ccccn2)c2nc3ccc(C(F)(F)F)cc3c(Cl)c12` has a melting point of 206 °C.
Work on `CNC(=N[N+](=O)[O-])N(Cc1cnc(Cl)s1)C(=O)N(C)C` yielded a melting point of 140 °C.
Work on `CC(C)(C)[C@H](O)[C@@H](C#N)c1ccccc1` (racemic) yielded a melting point of 70.7 to 71.2 °C.
Work on `COc1ccc2cc(C#CC(C)(C)O)ccc2c1` yielded a melting point of 118 to 119 °C.
Work on `Cc1cc(C)cc(C(=O)N2CCN(C(=O)CNC3CCN(Cc4ccc(-c5ccccc5)cc4)CC3)C(c3ccc(Cl)c(Cl)c3)C2)c1` (racemic) yielded a melting point of 87 to 89 °C.
Work on `O=C(O)CCCc1ccc(S(=O)(=O)Nc2ccc(Cl)cc2)cn1` yielded a melting point of 150 to 152 °C.
`CCN1CCc2cc(OC)c(OC)cc2C12CCC(C=O)CC2C1c2cc(OC)c(OC)cc2CCN1C` (stereo unspecified) gave a melting point of 137 to 139 °C.
For `COC1CN(S(=O)(=O)c2ccc(Cl)c(C(=O)O)c2)CCC1O` (stereo unspecified), the melting point was 170 to 174 °C.
With `COc1cc(C)c(S(=O)(=O)c2cccc(C)c2)cc1OC` the melting point was 135 to 140 °C.
In the case of `COc1ccc(CNc2nc(C#N)ncc2C(=O)c2cc(OC)c(OC)c(OC)c2)cc1Cl`, the melting point is reported as 140 to 143 °C.
Compound `Cc1nc(NC(=O)c2cc(Cl)ccc2F)sc1C(=O)NCc1ccccc1` has a melting point of 175 to 178 °C.
Compound `CN(C)S(=O)(=O)Oc1ccc2c(c1)CCC1C2CCC2(C)C(O)C(O)CC12` (stereo unspecified) has a melting point of 180 to 181 °C.
With `Cn1c(=O)c(=O)[nH]c2cc([N+](=O)[O-])c([N+](=O)[O-])cc21` the melting point was 370 to 380 °C.
With `CCCc1c(OCCCOc2ccc3c(c2CCC)OC(CCC(=O)O)(C(=O)O)CC3=O)ccc(C(C)=O)c1O` (stereo unspecified) the melting point was 76 to 79 °C.
`O=C(O)c1[nH]c2ccc(C(O)(C(F)(F)F)C(F)(F)F)cc2c1-c1ccccc1` gave a melting point of 186 to 190 °C.
`O=[N+]([O-])c1cnn(-c2ccc(C(F)(F)F)cc2Cl)c1` gave a melting point of 106 to 109 °C.
`CC(C)(C)c1cccc(Br)c1Oc1ccc(O)nn1` showed a melting point of 255 to 257 °C.
For `CN(C)c1n[nH]c(=O)n1N`, the melting point was 205 °C.
`CCCc1nc2ccccc2[nH]1` showed a melting point of 160 to 162 °C.
Compound `CC(C)C1NC(=O)[C@H](CS)NC1=O` (stereo partly specified) has a melting point greater than 275 °C.
With `COc1ccc(-c2csc(Nc3ccc(C)cn3)n2)cc1OC` the melting point was 190 to 192 °C.
With `CC(Cc1cccc(S(N)(=O)=O)c1)=NO` the melting point was 154 to 157 °C.
With `O=C(N[C@H](c1ccccc1)[C@@H](O)CO)c1cc2ccccc2[nH]1` (racemic) the melting point was 151 °C.
Compound `CNNC(=O)c1ccc(C(=O)NNC)cc1` has a melting point of 240 to 241 °C.
Work on `CCc1ccc2c(c1)C=Cc1cc(C)ccc1C2c1cn(-c2ccnc(NCC(=O)Nc3ncc(CC(=O)O)s3)n2)c(=O)[nH]c1=O` (stereo unspecified) yielded a melting point of 206 to 208 °C.
For `O=C1OC(=O)c2cnccc21`, the melting point was 72 to 74 °C.
With `COCC#Cc1cc(F)c2ncc(C(=O)NCc3ccc(Cl)cc3)c(O)c2c1` the melting point was 222 to 224 °C.
For `CCOC(=O)Nc1ccc(C(C)C(O)(Cn2cncn2)c2ccc(F)cc2F)cn1` (stereo unspecified), the melting point was 167 to 168 °C.
For `CCOC(=O)c1c2ccc(Cl)cc2c(-c2ccccc2)n1CCOS(C)(=O)=O`, the melting point was 125 to 127 °C.
`N#CC(CCN1CCC(c2ccccc2)CC1)(c1ccccc1)c1ccccc1` showed a melting point of 88 to 89.5 °C.
With `O=C1CCCC2=C1C(c1cccc(Cl)c1)C1=C(CCCC1)N2` (stereo unspecified) the melting point was 249 to 250 °C.
`NC(=O)N(O)Cc1cccc(C(O)C#Cc2ccsc2)c1` (stereo unspecified) showed a melting point of 151 °C.
In the case of `OCc1csc(-n2cccc2)n1`, the melting point is reported as 111 to 113 °C.
Compound `CC(C)(Sc1cc(C(C)(C)C)c(O)c(C(C)(C)C)c1)Sc1cc(C(C)(C)C)c(OCCO)c(C(C)(C)C)c1` has a melting point of 146 to 147 °C.
For `O=C(Nc1ccc(C2=CN(C(=O)OCc3ccccc3)CCC2)c(F)c1)OCc1ccccc1`, the melting point was 138 to 139 °C.
Work on `O=C1Nc2sccc2C(=O)N2CC[C@@H]12` yielded a melting point of 272 to 274 °C.
Work on `CCCc1c(O)ccc2c(=O)cc(C(=O)OC)oc12` yielded a melting point of 222 to 224 °C.
